Measurements as given in patent publication US7396837B2, “Antitumoral analogs of lamellarins” (Pharma Mar, S.A.U., priority 2002, dated 2008).
Entries after “also recorded” stand apart in the source; their conditions may differ. Read-outs that look alike come from different tables or passages of the source.

Experiments:
[1] = test system: LoVo-Dox; test: SRB colorimetric cell growth inhibition assay, LoVo-Dox (MDR); type: cell-based
Outline: (§1)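 After uninterrupted treatment, cultures are fixed and stained with sulforhodamine B, and absorbance reflects cell growth and viability. Each value represents the average of triplicate wells with SD.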

[2] = test system: SK-BR-3; test: SRB colorimetric cell growth inhibition assay, SK-BR-3; type: cell-based; conditions: Homo sapiens; for GI50: GI=growth inhibition, read-out: GI50 SK-BR-3; for CC50: cell killing (cytotoxic effect), read-out: LC50 SK-BR-3; for IC (TGI): total growth inhibition (cytostatic effect), read-out: TGI SK-BR-3
Outline: as §1

[3] = test system: LoVo; test: SRB colorimetric cell growth inhibition assay, LoVo; type: cell-based; conditions: Homo sapiens; for GI50: GI=growth inhibition, read-out: GI50 LOVO; for CC50: LC=cell killing (cytotoxic effect), read-out: LC50 LOVO; for IC (TGI): TGI=total growth inhibition (cytostatic effect), read-out: TGI LOVO
Outline: as §1

[4] = test system: SK-MEL-28; test: SRB colorimetric cell growth inhibition assay, SK-MEL-28; type: cell-based; conditions: Homo sapiens, SK-MEL-28, MEL-28; for GI50: GI=growth inhibition, read-out: GI50 MEL-28; for CC50: cell killing (cytotoxic effect), read-out: LC50 MEL-28; for IC (TGI): total growth inhibition (cytostatic effect), read-out: TGI MEL-28
Outline: as §1

[5] = test system: DU-145; test: SRB colorimetric cell growth inhibition assay, DU-145; type: cell-based; conditions: Homo sapiens; for GI50: GI=growth inhibition, read-out: GI50 DU-145; for CC50: cell killing (cytotoxic effect), read-out: LC50 DU-145; for IC (TGI): total growth inhibition (cytostatic effect), read-out: TGI DU-145
Outline: as §1

[6] = biological target: T1, human topoisomerase I (Homo sapiens, UniProt P11387); test: Topoisomerase I DNA relaxation assay (supercoiled plasmid DNA); type: biochemical; conditions: supercoiled plasmid DNA, each compound tested at 1 μM, agarose gel with ethidium bromide
T1 sequence (P11387 1-765): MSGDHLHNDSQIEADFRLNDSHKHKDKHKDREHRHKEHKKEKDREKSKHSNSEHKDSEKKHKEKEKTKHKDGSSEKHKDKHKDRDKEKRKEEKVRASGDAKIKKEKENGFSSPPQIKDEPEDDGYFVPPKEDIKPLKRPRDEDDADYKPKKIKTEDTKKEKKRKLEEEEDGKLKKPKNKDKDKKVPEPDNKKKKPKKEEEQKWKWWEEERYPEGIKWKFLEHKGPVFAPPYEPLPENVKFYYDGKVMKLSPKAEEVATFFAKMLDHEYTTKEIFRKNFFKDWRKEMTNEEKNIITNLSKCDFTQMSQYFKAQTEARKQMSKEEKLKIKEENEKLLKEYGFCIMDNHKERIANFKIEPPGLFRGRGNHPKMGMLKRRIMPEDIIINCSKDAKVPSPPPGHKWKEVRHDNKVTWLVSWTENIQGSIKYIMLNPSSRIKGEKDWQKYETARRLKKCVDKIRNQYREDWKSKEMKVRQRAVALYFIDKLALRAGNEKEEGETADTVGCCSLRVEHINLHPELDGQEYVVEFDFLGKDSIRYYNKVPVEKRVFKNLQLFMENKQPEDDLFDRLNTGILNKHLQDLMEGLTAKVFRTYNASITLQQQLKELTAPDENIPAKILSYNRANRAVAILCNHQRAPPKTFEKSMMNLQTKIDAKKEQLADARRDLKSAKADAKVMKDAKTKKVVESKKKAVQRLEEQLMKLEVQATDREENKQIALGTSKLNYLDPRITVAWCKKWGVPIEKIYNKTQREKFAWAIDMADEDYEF
Outline: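 Supercoiled plasmid DNA was relaxed by human topoisomerase I with or without test compound at 1 μM. Products were resolved by agarose gel electrophoresis with ethidium bromide staining.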

[7] = test system: A-549; test: SRB colorimetric cell growth inhibition assay, A-549; type: cell-based; conditions: Homo sapiens, A549, A-549; for GI50: GI=growth inhibition, read-out: GI50 A-549; for CC50: LC=cell killing (cytotoxic effect), read-out: LC50 A-549; for IC (TGI): TGI=total growth inhibition (cytostatic effect), read-out: TGI A-549
Outline: as §1

[8] = test system: PANC-1; test: SRB colorimetric cell growth inhibition assay, PANC-1; type: cell-based; conditions: Homo sapiens; for GI50: GI=growth inhibition, read-out: GI50 PANC-1; for CC50: LC=cell killing (cytotoxic effect), read-out: LC50 PANC-1; for IC (TGI): TGI=total growth inhibition (cytostatic effect), read-out: TGI PANC-1
Outline: as §1

[9] = test system: IGROV-ET; test: SRB colorimetric cell growth inhibition assay, IGROV-ET (ET-743 resistant); type: cell-based; conditions: Homo sapiens, IGROV-ET; for GI50: GI=growth inhibition, read-out: GI50 IGROV-ET; for CC50: cell killing (cytotoxic effect), read-out: LC50 IGROV-ET; for IC (TGI): total growth inhibition (cytostatic effect), read-out: TGI IGROV-ET
Outline: as §1

[10] = test system: LNCaP; test: SRB colorimetric cell growth inhibition assay, LNCaP; type: cell-based; conditions: Homo sapiens, LNCaP, LN-caP; for GI50: GI=growth inhibition, read-out: GI50 LN-caP; for CC50: cell killing (cytotoxic effect), read-out: LC50 LN-caP; for IC (TGI): total growth inhibition (cytostatic effect), read-out: TGI LN-caP
Outline: as §1

[11] = test system: IGROV; test: SRB colorimetric cell growth inhibition assay, IGROV; type: cell-based
Outline: as §1

[12] = test system: HT-29; test: SRB colorimetric cell growth inhibition assay, HT-29; type: cell-based; conditions: Homo sapiens; for GI50: GI=growth inhibition, read-out: GI50 HT-29; for CC50: LC=cell killing (cytotoxic effect), read-out: LC50 HT-29; for IC (TGI): TGI=total growth inhibition (cytostatic effect), read-out: TGI HT-29
Outline: as §1

[13] = test system: K-562; test: SRB colorimetric cell growth inhibition assay, K-562; type: cell-based; conditions: Homo sapiens, K562, K-562; for GI50: GI=growth inhibition, read-out: GI50 K-562; for CC50: LC=cell killing (cytotoxic effect), read-out: LC50 K-562; for IC (TGI): TGI=total growth inhibition (cytostatic effect), read-out: TGI K-562
Outline: as §1

[14] = Homo sapiens, LOVO-DOX; GI=growth inhibition; read-out: GI50 LOVO-DOX
[15] = Homo sapiens, LOVO-DOX; LC=cell killing (cytotoxic effect); read-out: LC50 LOVO-DOX
[16] = Homo sapiens, LOVO-DOX; TGI=total growth inhibition (cytostatic effect); read-out: TGI LOVO-DOX
[17] = Homo sapiens, IGROV; GI=growth inhibition; read-out: GI50 IGROV
[18] = Homo sapiens, IGROV; cell killing (cytotoxic effect); read-out: LC50 IGROV
[19] = Homo sapiens, IGROV; total growth inhibition (cytostatic effect); read-out: TGI IGROV

Row | Compound | GI50 [1, 14] | CC50 [1, 15] | CC50 ([2]; SK-BR-3, SK-BR-3) | CC50 ([3]; LoVo) | GI50 [4] | CC50 [4] | IC (TGI) [4] | CC50 ([5]; DU-145, DU-145) | stimulation of DNA cleavage by topoisomerase I / inhibition of topoisomerase I (nicked DNA band) in DNA relaxation assay [6] | GI50 [7] | CC50 [7] | IC (TGI) [7] | CC50 ([8]; PANC-1, PANC-1) | IC (TGI) ([8]; PANC-1, PANC-1) | GI50 [9] | CC50 [9] | IC (TGI) [9] | GI50 [10] | CC50 [10] | IC (TGI) [10] | further results
1 | COc1cc(-c2c3c4cc(OC)c(OC(=O)[C@@H]5CCCN5)cc4oc(=O)c3n3ccc4cc(OC(=O)[C@@H]5CCCN5)c(OC)cc4c23)ccc1OC(=O)[C@@H]1CCCN1 [Compound 33] | 198 nM | 4330 nM | 1440 nM | 726 nM | 41.1 nM | 2480 nM | 198 nM | 367 nM | marked inhibition of topoisomerase I | 37.9 nM | 883 nM | 154 nM | 8440 nM | 1060 nM | 78.1 nM | 8830 nM | 589 nM | 39.7 nM | 423 nM | 155 nM | IC (TGI) [1, 16]: 558 nM; GI50 ([2]; SK-BR-3, SK-BR-3): 30.5 nM; IC (TGI) ([2]; SK-BR-3, SK-BR-3): 168 nM; GI50 ([3]; LoVo): 153 nM; IC (TGI) ([3]; LoVo): 333 nM; GI50 ([5]; DU-145, DU-145): 18.6 nM; IC (TGI) ([5]; DU-145, DU-145): 46 nM; GI50 ([8]; PANC-1, PANC-1): 89.2 nM; GI50 [11, 17]: 49.6 nM; CC50 [11, 18]: 4760 nM; IC (TGI) [11, 19]: 500 nM; GI50 ([12]; HT-29, HT-29): 1340 nM; CC50 ([12]; HT-29, HT-29): 8740 nM; IC (TGI) ([12]; HT-29, HT-29): 3420 nM; GI50 [13]: 5.96 nM; CC50 [13]: 4030 nM; IC (TGI) [13]: 918 nM
2 | COc1cc(-c2c3n(c4c(=O)oc5cc(OC(=O)[C@H](NC(=O)OC(C)(C)C)C(C)C)c(OC)cc5c24)CCc2cc(OC(=O)[C@H](NC(=O)OC(C)(C)C)C(C)C)c(OC)cc2-3)ccc1OC(=O)[C@H](NC(=O)OC(C)(C)C)C(C)C [Compound 34] | 9100 nM | 9100 nM | 8950 nM | 9100 nM | 1360 nM | 5580 nM | 2760 nM | 6500 nM | No effect | 1470 nM | 9100 nM | 3710 nM | 9100 nM | 992 nM | 2070 nM | 9100 nM | 4630 nM | 461 nM | 4110 nM | 1570 nM | IC (TGI) ([1]; Homo sapiens; LOVO-DOX; TGI=total growth inhibition (cytostatic effect); read-out: TGI LOVO-DOX): 9100 nM; GI50 ([2]; SK-BR-3): 1180 nM; IC (TGI) ([2]; SK-BR-3): 3250 nM; GI50 ([3]; LOVO): 840 nM; IC (TGI) ([3]; LOVO): 4020 nM; GI50 ([5]; DU-145): 196 nM; IC (TGI) ([5]; DU-145): 588 nM; GI50 ([8]; PANC-1): 301 nM; CC50 [11, 18]: 8740 nM; GI50 ([11]; Homo sapiens; IGROV; GI=growth inhibition; read-out: GI50 IGROV): 307 nM; IC (TGI) ([11]; Homo sapiens; IGROV; total growth inhibition (cytostatic effect); read-out: TGI IGROV): 2110 nM; CC50 ([12]; HT-29, HT-29): 9100 nM; GI50 ([12]; HT-29): 1160 nM; IC (TGI) ([12]; HT-29): 5390 nM; GI50 [13]: 1040 nM; CC50 [13]: 6620 nM; IC (TGI) [13]: 2610 nM
3 | COc1cc(-c2c3c4cc(OC)c(OC(=O)[C@@H](N)C(C)C)cc4oc(=O)c3n3ccc4cc(OC(=O)[C@@H](N)C(C)C)c(OC)cc4c23)ccc1OC(=O)[C@@H](N)C(C)C [Compound 36] | 145 nM | 8780 nM | 2940 nM | 652 nM | 31.9 nM | 2700 nM | 181 nM | 668 nM | marked inhibition of topoisomerase I; also recorded: stimulated DNA cleavage by the enzyme | 32.8 nM | 1690 nM | 154 nM | 8780 nM | 1130 nM | 76.5 nM | 8780 nM | 540 nM | 42.8 nM | 424 nM | 156 nM | IC (TGI) [1, 16]: 525 nM; GI50 ([2]; SK-BR-3, SK-BR-3): 39.6 nM; IC (TGI) ([2]; SK-BR-3, SK-BR-3): 221 nM; GI50 ([3]; LoVo): 158 nM; IC (TGI) ([3]; LoVo): 321 nM; GI50 ([5]; DU-145, DU-145): 10.8 nM; IC (TGI) ([5]; DU-145, DU-145): 38.3 nM; GI50 ([8]; PANC-1, PANC-1): 169 nM; GI50 [11, 17]: 46.9 nM; CC50 [11, 18]: 7950 nM; IC (TGI) [11, 19]: 409 nM; GI50 ([12]; HT-29, HT-29): 1510 nM; CC50 ([12]; HT-29, HT-29): 8780 nM; IC (TGI) ([12]; HT-29, HT-29): 4080 nM; GI50 [13]: 9.48 nM; CC50 [13]: 5700 nM; IC (TGI) [13]: 188 nM
